PubChem BioAssay (NCI)
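GI50 is the concentration that inhibits growth by half. TGI: total growth inhibition.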

Experiments:
Assay in all cases: inhibition of tumour cell growth, NCI panel, 384-well format
RXF 393 renal = test system: RXF 393 renal
IGROV1 ovarian = test system: IGROV1 ovarian
OVCAR-4 ovarian = test system: OVCAR-4 ovarian
SF-539 CNS = test system: SF-539 CNS
ACHN renal = test system: ACHN renal
COLO 205 colon = test system: COLO 205 colon
CAKI-1 renal = test system: CAKI-1 renal
SR leukemia = test system: SR leukemia
NCI-H460 NSCLC = test system: NCI-H460 NSCLC
HCT-116 colon = test system: HCT-116 colon
SF-268 CNS = test system: SF-268 CNS
MDA-MB-231 breast = test system: MDA-MB-231 breast
NCI-H322M lung = test system: NCI-H322M lung
MCF7 breast = test system: MCF7 breast
RPMI-8226 leukemia = test system: RPMI-8226 leukemia
HOP-62 NSCLC = test system: HOP-62 NSCLC
SK-MEL-28 melanoma = test system: SK-MEL-28 melanoma
NCI-H226 lung = test system: NCI-H226 lung
M14 melanoma = test system: M14 melanoma
NCI-H522 lung = test system: NCI-H522 lung
TK-10 renal = test system: TK-10 renal
OVCAR-3 ovarian = test system: OVCAR-3 ovarian
HCT-15 colon = test system: HCT-15 colon
A549 NSCLC = test system: A549 NSCLC
SW-620 colon = test system: SW-620 colon
T-47D breast = test system: T-47D breast
SNB-19 CNS = test system: SNB-19 CNS
UACC-257 melanoma = test system: UACC-257 melanoma
MDA-MB-435 melanoma = test system: MDA-MB-435 melanoma
SK-MEL-5 melanoma = test system: SK-MEL-5 melanoma
MOLT-4 leukemia = test system: MOLT-4 leukemia
LOX IMVI melanoma = test system: LOX IMVI melanoma
OVCAR-5 ovarian = test system: OVCAR-5 ovarian
NCI-H23 lung = test system: NCI-H23 lung
CCRF-CEM leukemia = test system: CCRF-CEM leukemia
SNB-75 CNS = test system: SNB-75 CNS
OVCAR-8 ovarian = test system: OVCAR-8 ovarian
HOP-92 NSCLC = test system: HOP-92 NSCLC
KM12 colon = test system: KM12 colon
U251 glioblastoma = test system: U251 glioblastoma
786-0 renal = test system: 786-0 renal
SK-MEL-2 melanoma = test system: SK-MEL-2 melanoma
HT29 colon = test system: HT29 colon
MDA-MB-468 breast = test system: MDA-MB-468 breast
BT-549 breast = test system: BT-549 breast
SK-OV-3 ovarian = test system: SK-OV-3 ovarian
HS 578T breast = test system: HS 578T breast

With `Cc1ccc2c(N)c(C(=O)N[C@H]3CCc4cc(N5CC6CCC(C5)N6)ccc4C3)sc2n1` the GI50 (RXF 393 renal) was 0.116 µM, the TGI (RXF 393 renal) was 0.406 µM and the GI50 (IGROV1 ovarian) was 0.3 µM. For the same compound, the TGI (IGROV1 ovarian) was 1.12 µM, the GI50 (OVCAR-4 ovarian) was 0.127 µM and the TGI (OVCAR-4 ovarian) was 0.46 µM. The GI50 (SF-539 CNS) was 0.207 µM, the TGI (SF-539 CNS) was 0.663 µM and the GI50 (ACHN renal) was 0.101 µM. It also gave a TGI (ACHN renal) of 0.707 µM, a GI50 (COLO 205 colon) of 0.164 µM and a TGI (COLO 205 colon) of 0.532 µM. The GI50 (CAKI-1 renal) was 0.234 µM, the TGI (CAKI-1 renal) was 1.11 µM and the GI50 (SR leukemia) was 0.161 µM. For the same compound, the TGI (SR leukemia) was 0.298 µM, the GI50 (NCI-H460 NSCLC) was 0.0661 µM and the TGI (NCI-H460 NSCLC) was 0.548 µM. It also gave a GI50 (HCT-116 colon) of 0.155 µM, a TGI (HCT-116 colon) of 0.925 µM and a GI50 (SF-268 CNS) of 0.12 µM. It also gave a TGI (SF-268 CNS) of 0.501 µM, a GI50 (MDA-MB-231 breast) of 0.219 µM and a TGI (MDA-MB-231 breast) of 0.972 µM. The GI50 (NCI-H322M lung) was 0.208 µM, the TGI (NCI-H322M lung) was 0.66 µM and the GI50 (MCF7 breast) was 0.0949 µM. For the same compound, the TGI (MCF7 breast) was 1.11 µM, the GI50 (RPMI-8226 leukemia) was 0.0664 µM and the TGI (RPMI-8226 leukemia) was 0.192 µM. It also gave a GI50 (HOP-62 NSCLC) of 0.148 µM, a TGI (HOP-62 NSCLC) of 0.624 µM and a GI50 (SK-MEL-28 melanoma) of 0.269 µM. It also gave a TGI (SK-MEL-28 melanoma) of 0.813 µM, a GI50 (NCI-H226 lung) of 0.178 µM and a TGI (NCI-H226 lung) of 0.713 µM. The GI50 (M14 melanoma) was 0.104 µM, the TGI (M14 melanoma) was 0.343 µM and the GI50 (NCI-H522 lung) was 0.174 µM. The TGI (NCI-H522 lung) was 0.487 µM, the GI50 (TK-10 renal) was 0.253 µM and the TGI (TK-10 renal) was 0.757 µM. The GI50 (OVCAR-3 ovarian) was 0.129 µM, the TGI (OVCAR-3 ovarian) was 0.513 µM and the GI50 (HCT-15 colon) was 0.26 µM. It also gave a TGI (HCT-15 colon) of 1.03 µM, a GI50 (A549 NSCLC) of 0.222 µM and a TGI (A549 NSCLC) of 1.06 µM. It also gave a GI50 (SW-620 colon) of 0.207 µM, a TGI (SW-620 colon) of 1.07 µM and a GI50 (T-47D breast) of 0.269 µM. The TGI (T-47D breast) was 0.992 µM, the GI50 (SNB-19 CNS) was 0.293 µM and the TGI (SNB-19 CNS) was 2.14 µM. For the same compound, the GI50 (UACC-257 melanoma) was 0.194 µM, the TGI (UACC-257 melanoma) was 0.775 µM and the GI50 (MDA-MB-435 melanoma) was 0.207 µM. The TGI (MDA-MB-435 melanoma) was 0.804 µM, the GI50 (SK-MEL-5 melanoma) was 0.111 µM and the TGI (SK-MEL-5 melanoma) was 0.436 µM. For the same compound, the GI50 (MOLT-4 leukemia) was 0.0351 µM, the TGI (MOLT-4 leukemia) was 0.105 µM and the GI50 (LOX IMVI melanoma) was 0.0887 µM. It also gave a TGI (LOX IMVI melanoma) of 0.268 µM, a GI50 (OVCAR-5 ovarian) of 0.277 µM and a TGI (OVCAR-5 ovarian) of 0.795 µM. The GI50 (NCI-H23 lung) was 0.211 µM, the TGI (NCI-H23 lung) was 0.594 µM and the GI50 (CCRF-CEM leukemia) was 0.0423 µM. It also gave a TGI (CCRF-CEM leukemia) of 0.133 µM, a GI50 (SNB-75 CNS) of 0.219 µM and a TGI (SNB-75 CNS) of 0.682 µM. For the same compound, the GI50 (OVCAR-8 ovarian) was 0.278 µM, the TGI (OVCAR-8 ovarian) was 1.08 µM and the GI50 (HOP-92 NSCLC) was 0.373 µM. For the same compound, the TGI (HOP-92 NSCLC) was 1.64 µM, the GI50 (KM12 colon) was 0.228 µM and the TGI (KM12 colon) was 1.2 µM. For the same compound, the GI50 (U251 glioblastoma) was 0.27 µM, the TGI (U251 glioblastoma) was 1.03 µM and the GI50 (786-0 renal) was 0.229 µM. It also gave a TGI (786-0 renal) of 0.997 µM, a GI50 (SK-MEL-2 melanoma) of 0.121 µM and a TGI (SK-MEL-2 melanoma) of 0.421 µM. The GI50 (HT29 colon) was 0.386 µM, the TGI (HT29 colon) was 4.35 µM and the GI50 (MDA-MB-468 breast) was 0.206 µM. For the same compound, the TGI (MDA-MB-468 breast) was 0.691 µM, the GI50 (BT-549 breast) was 0.154 µM and the TGI (BT-549 breast) was 0.423 µM. The GI50 (SK-OV-3 ovarian) was 0.099 µM, the TGI (SK-OV-3 ovarian) was 0.94 µM and the GI50 (HS 578T breast) was 0.18 µM. For the same compound, the TGI (HS 578T breast) was 0.543 µM.
